Experiment [1] deals with peritoneal cancer. Conditions: intraperitoneal administration; cited from earlier work.
Experiment [2] deals with Human RT4 bladder transitional bladder cancer cells. As to the kind of experiment: cytotoxicity in RT4 cells, immediate and delayed effect, sulforhodamine B assay. In kind it is cell-based. The conditions noted are these: immediate effect. (In general: The SRB assay estimates cell density from bound dye.)
Experiment [3] concerns Histocultures of head and neck FaDu xenograft tumors. The experiment is described as follows: Lipo-siRNA penetration into tumor histocultures with and without tumor priming. In kind it is cell-based. Conditions: paclitaxel 0.5 μM maintained for 48 hour, versus no priming. As for the experimental part: Histocultures of head and neck FaDu xenograft tumors were maintained in vitro. Penetration of siRNA, formulated in cationic liposomes, was evaluated with and without tumor priming pretreatment. To facilitate detection, siRNA were labeled with green fluorescence (siGLO) and lipids were labeled with a red fluorescence marker. […] In the overlay picture, the red and green fluorescent images are combined. […] The bars indicate a length of 100 μm.

Experiment [4] deals with human head and neck FaDu xenografts. As to the kind of experiment: nano-sized latex bead delivery and dispersion in tumors after tumor priming. The experiment is classed as in vivo, Mice. Conditions: paclitaxel 40 milligrams per kilogram intravenously, beads 48 hours later, tumors excised 24 hours after.
Protocol: Mice were implanted subcutaneously with human head and neck FaDu xenografts, and divided in two groups. […] The control group (without tumor priming) only received the vehicle. Forty-eight hours later, animals received an intravenous injection of red fluorescent latex beads of 100, or 200 nm diameter. Tumors were excised 24 hours after the injection of the beads and examined. […] The percentage of area in tumors occupied by particles was calculated as (total number of deep-derived pixels) divided by (total number of pixels per microscopic field), which provided a measurement of the dispersion area. The average bead concentration in tumors was the average fluorescence intensity, which was calculated as (mean intensity of bead-derived pixels multiplied by total number of bead-derived pixels) divided by (total number of pixels per microscopic field). Eight tumors were used per data point.
Experiment [5] has as its system stage T0 and T1 bladder tumors obtained from human patients. The conditions noted are these: cited from earlier work.

Each structure is given as a SMILES string.

Turning to `N.N.[Cl][Pt][Cl]` [cisplatin], the “extension of survival time in patients” value in experiment [1] was “about 20%”.
A word on the IC50: it is the concentration needed to halve the response being measured. For the compound `CC(=O)O[C@H]1C(=O)[C@@]2(C)[C@H]([C@H](OC(=O)c3ccccc3)[C@]3(O)C[C@H](OC(=O)[C@H](O)[C@@H](NC(=O)c4ccccc4)c4ccccc4)C(C)=C1C3(C)C)[C@]1(OC(C)=O)CO[C@@H]1C[C@@H]2O` [paclitaxel], the maximal inhibition in experiment [2] (48 hours) was found to be 60%; in experiment [2] (96 hours), 84%. For the same compound, the “penetration of siGLO-loaded liposomes after paclitaxel priming” value in experiment [3] is listed as “at least five-fold deeper”. Also, the “delivery of latex beads to tumors after tumor priming” value in experiment [4] is “enhanced the delivery of the 100- and 200-nm latex beads”. The IC50 in experiment [5] is 1200 nM.
